Measurements taken from patent publication US20240000767A1, “COMBINATION OF AN ALPHA2-ADRENOCEPTOR SUBTYPE C (ALPHA-2C) ANTAGONIST WITH A TASK1/3 CHANNEL BLOCKER FOR THE TREATMENT OF SLEEP APNEA” (Bayer Aktiengesellschaft, priority 2020, published 2024).

What follows are compounds tested against human ADRA2C receptor (Homo sapiens (Human), UniProt P18825) (assay: In vitro activity assay to determine the inhibition of recombinant ADRA2C (CHO-K1 cells, aequorin bioluminescence)). Details: inhibition of noradrenaline-induced bioluminescence signal; some mean values from multiple determinations; read-out: ARα2C IC50.
Format: cell-based
In short: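 IC50 is the concentration halving the agonist (noradrenaline)-evoked rise in aequorin luminescence, fitted by 4-parameter Hill function. Read in stable Gαq/aequorin CHO-K1 cells expressing recombinant human ADRA2C.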

Sequence of human ADRA2C receptor (P18825 whole entry): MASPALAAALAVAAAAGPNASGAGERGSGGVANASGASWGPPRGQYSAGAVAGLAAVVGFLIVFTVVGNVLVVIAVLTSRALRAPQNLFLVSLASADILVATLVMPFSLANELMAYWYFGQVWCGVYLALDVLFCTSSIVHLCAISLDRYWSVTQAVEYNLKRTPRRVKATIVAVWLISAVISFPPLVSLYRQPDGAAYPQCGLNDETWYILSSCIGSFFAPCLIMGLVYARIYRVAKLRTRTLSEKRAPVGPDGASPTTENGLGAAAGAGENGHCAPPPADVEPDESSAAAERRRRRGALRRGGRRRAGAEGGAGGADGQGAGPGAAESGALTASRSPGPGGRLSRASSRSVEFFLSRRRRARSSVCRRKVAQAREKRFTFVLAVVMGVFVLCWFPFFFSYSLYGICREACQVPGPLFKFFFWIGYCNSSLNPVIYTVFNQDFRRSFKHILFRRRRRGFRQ

IC50	Structure (SMILES)
755 nM	Cc1cc(C)c(CNC(=O)c2cnc(N3CCC(N4CCC[C@@H](C)C4)CC3)s2)cn1 [Example 78, N-[(4,6-Dimethylpyridin-3-yl)methyl]-2-[(3R)-3-methyl[1,4′-bipiperidin]-1′-yl]-1,3-thiazole-5-carboxamide]
50.3 nM	C[C@@H]1CCCN(C2CCN(c3ncc(C(=O)NCc4c(Cl)cnn4C)s3)CC2)C1 [Example 79, N-[(4-Chloro-1-methyl-1H-pyrazol-5-yl)methyl]-2-[(3R)-3-methyl[1,4′-bipiperidin]-1′-yl]-1,3-thiazole-5-carboxamide]
90.5 nM	COc1cccc(CNC(=O)c2cnc(N3CCC(N4CCC[C@@H](C)C4)CC3)s2)c1 [Example 80]
22.2 nM	C[C@@H]1CCCN(C2CCN(c3ncc(C(=O)NCc4cc(F)ccc4F)s3)CC2)C1 [Example 81]
102 nM	C[C@@H]1CCCN(C2CCN(c3ncc(C(=O)NCc4cccc(O)c4)s3)CC2)C1 [Example 82]
98.1 nM	CC(CNC(=O)c1cnc(N2CCC(N3CCC[C@@H](C)C3)CC2)s1)c1ccccc1 (stereo partly drawn) [Example 83]
65 nM	C[C@@H]1CCCN(C2CCN(c3ncc(C(=O)NCc4ccc(F)cc4)s3)CC2)C1 [Example 84]
600 nM	C[C@@H]1CCCN(C2CCN(c3ncc(C(=O)NCc4cccnc4)s3)CC2)C1 [Example 85]
28 nM	C[C@@H]1CCCN(C2CCN(c3ncc(C(=O)NCc4cccc(F)c4)s3)CC2)C1 [Example 86]
25.5 nM	C[C@@H]1CCCN(C2CCN(c3ncc(C(=O)NCc4ccccc4F)s3)CC2)C1 [Example 87]
230 nM	C[C@@H]1CCCN(C2CCN(c3ncc(C(=O)Nc4ccc(F)c(C#N)c4)s3)CC2)C1 [Example 89]
97 nM	C[C@@H]1CCCN(C2CCN(c3ncc(C(=O)N(C)Cc4cccnc4)s3)CC2)C1 [Example 90]
284 nM	C[C@@H]1CCCN(C2CCN(c3ncc(C(=O)N(C)Cc4ccncc4)s3)CC2)C1 [Example 91]
85 nM	C[C@@H]1CCCN(C2CCN(c3ncc(C(=O)N(C)Cc4ccccc4)s3)CC2)C1 [Example 92]
630 nM	C[C@@H]1CCCN(C2CCN(c3ncc(C(=O)Nc4ccccc4C4CC4)s3)CC2)C1 [Example 93]
150 nM	C[C@@H]1CCCN(C2CCN(c3ncc(C(=O)NCc4cccc(Cl)c4)s3)CC2)C1 [Example 94]
800 nM	Cc1ccc(C(C)NC(=O)c2cnc(N3CCC(N4CCC[C@@H](C)C4)CC3)s2)cc1 (stereo partly drawn) [Example 95]
1000 nM	C[C@@H]1CCCN(C2CCN(c3ncc(C(=O)Nc4cc(Cl)ccc4O)s3)CC2)C1 [Example 96]
1300 nM	COc1ccc(F)cc1NC(=O)c1cnc(N2CCC(N3CCC[C@@H](C)C3)CC2)s1 [Example 97]
1600 nM	CCc1cc(NC(=O)c2cnc(N3CCC(N4CCC[C@@H](C)C4)CC3)s2)ccn1 [Example 98]
1.3 nM	O=C(NCc1ncc(F)cc1F)c1cnc(N2CCC(N3CCC[C@@H](OCC4CC4)C3)CC2)s1 [Example 114, 2-[(3R)-3-(Cyclopropylmethoxy)[1,4′-bipiperidin]-1′-yl]-N-[(3,5-difluoropyridin-2-yl)methyl]-1,3-thiazole-5-carboxamide]
7.7 nM	C[C@@H]1CCCN(C2CCN(c3nc(-c4ccccc4Cl)c(C(=O)NCc4ncc(F)cc4F)s3)CC2)C1 [Example 118, 4-(2-Chlorophenyl)-N-[(3,5-difluoropyridin-2-yl)methyl]-2-[(3R)-3-methyl[1,4′-bipiperidin]-1′-yl]-1,3-thiazole-5-carboxamide]
41 nM	C[C@@H]1CCCN(C2CCN(c3nc(Cl)c(C(=O)NCc4ncc(F)cc4F)s3)CC2)C1 [Example 120, 4-Chloro-N-[(3,5-difluoropyridin-2-yl)methyl]-2-[(3R)-3-methyl[1,4′-bipiperidin]-1′-yl]-1,3-thiazole-5-carboxamide]
13 nM	C[C@@H]1CCCN(C2CCN(c3nc(C4CC4)c(C(=O)NCc4ncc(F)cc4F)s3)CC2)C1 [Example 122, 4-Cyclopropyl-N-[(3,5-difluoropyridin-2-yl)methyl]-2-[(3R)-3-methyl[1,4′-bipiperidin]-1′-yl]-1,3-thiazole-5-carboxamide]
